Results from article PMC5531531, “A synthetic cationic antimicrobial peptide inhibits inflammatory response and the NLRP3 inflammasome by neutralizing LPS and ATP” (PLoS ONE, 2017).
No end group written: not given here.

Legend:
[1] = tested on: NF-κB activity in RAW-Blue cells; experiment: NF-κB reporter assay; type: cell-based; settings: E. coli LPS 0.1 μg/ml 24 h, QUANTI-Blue, Fig 2D
Protocol: RAW-Blue™ cells (2 × 10^5 in 0.5 ml of medium) were seeded in 24-well plates and then incubated with LPS (0.1 μg/ml) in the presence or absence of AMPs for 24 h. The NF-κB activity was assayed by QUANTI-Blue™ (rep-qb1, InvivoGen) as described in detail previously.

[2] = tested on: cell surface of paraformaldehyde-fixed RAW 264.7 cells; experiment: Flow cytometry, binding to the cell surface; type: cell-based, mouse; settings: fixed RAW 264.7, GW-A2 30 min then 2 μg/ml LPS-FITC 30 min, 4°C; Fig 6A
Protocol: For binding of GW-A2 to the cell surface, RAW 264.7 cells were fixed for 15 min with 2% paraformaldehyde and then incubated for 30 min with 20 μM of GW-A2-FITC at 4°C. After washing, cells were subjected to flow cytometric analysis on a FACSCalibur using CellQuest Software (Becton Dickinson Inc., San Jose, CA, USA). To assess binding of LPS to the cell surface, RAW 264.7 cells were fixed for 15 min with 2% paraformaldehyde and then incubated for 30 min with GW-A2. This was followed by incubation for 30 min with 2 μg/ml of LPS-FITC (F3665, Sigma) at 4°C. After washing, the cells were subjected to flow cytometric analysis.

## GAKYAKIIYNYLKKIANALW [GW-A2]
[1]
  NF-κB transcriptional activity: reduced by GW-A2 in a dose-dependent manner
[2]
  Competition with LPS-FITC for cell surface binding: did not compete
  LPS-FITC binding to the cell surface in presence of GW-A2: increase in LPS-FITC binding to the cell surface
